For assay [1], the system named is IL-23-stimulated STAT-dependent luciferase reporter in Kit225 T cells. Briefly: Kit225 T cell assay, IL-23 stimulated STAT-dependent luciferase reporter. The conditions noted are these: Kit225 T cells, 20 ng/mL human recombinant IL-23, 5-6 hours, luciferase; read-out: IL23 (Kit225 T Cell Inhibition Data). It is filed as cell-based, human. In a few lines: (§1)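 Kit225 T cells carrying a stably integrated STAT-luciferase reporter, in RPMI with 10% heat-inactivated FBS, were stimulated with 20 ng/mL IL-23 or 200 U/mL IFNα for 5-6 h. Readout was luminescence from the luciferase reporter.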
A general note: In a reporter assay the amount or activity of a reporter protein is the signal.

The subject of assay [2] is IFNα-stimulated STAT-dependent luciferase reporter in Kit225 T cells. Put plainly: Kit225 T cell assay, IFNα stimulated STAT-dependent luciferase reporter. It is filed as cell-based, human. The conditions noted are these: Kit225 T cells, 200 U/mL human recombinant IFNα, 5-6 hours, luciferase; read-out: IFNα (Kit225 T Cell Inhibition Data). Put shortly: as §1
For assay [3], the target named is T1, recombinantly expressed His-tagged protein corresponding to amino acids 575-869 of human Tyk2 (Homo sapiens, UniProt P29597).
T1 construct: corresponding to amino acids 575-869 of human Tyk2; made in house
T1 sequence (P29597 575-869): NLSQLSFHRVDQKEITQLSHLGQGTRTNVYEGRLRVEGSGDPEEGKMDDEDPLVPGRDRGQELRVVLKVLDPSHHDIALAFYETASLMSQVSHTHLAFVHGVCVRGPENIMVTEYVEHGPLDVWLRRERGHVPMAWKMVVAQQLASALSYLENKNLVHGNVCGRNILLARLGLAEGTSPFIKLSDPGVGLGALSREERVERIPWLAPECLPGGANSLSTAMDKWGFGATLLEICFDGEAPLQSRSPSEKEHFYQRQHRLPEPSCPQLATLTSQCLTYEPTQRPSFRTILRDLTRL
Put plainly: Probe displacement assay (scintillation proximity, [3H] probe). It is filed as binding. The conditions noted are these: 2.5 nM Tyk2 (575-869), 40 nM radiolabeled probe, 30 minutes at room temperature. The procedure:
The probe displacement assay is conducted as follows: In a […], test compounds along with recombinantly expressed His-tagged protein corresponding to amino acids 575-869 of human Tyk2 (sequence shown below) at 2.5 nM, 40 nM ((R)-N-(1-(3-(8-methyl-5-(methylamino)-8H-imidazo[4,5-d]thiazolo[5,4-b]pyridin-2-yl)phenyl)ethyl)-2-([^3H]methylsulfonyl)benzamide) (preparation described below) and 80 μg/mL Copper His-Tag scintillation proximity assay beads (Perkin Elmer, Catalog #RPNQ0095) in 50 mM HEPES, pH 7.5, containing 100 μg/mL bovine serum albumin and 5% DMSO were incubated for 30 minutes at room temperature. The amount of radiolabeled probe (preparation described below) bound to Tyk2 was then quantified by scintillation counting, and the inhibition by the test compound calculated by comparison to wells either with no inhibitor (0% inhibition) or without Tyk2 (100% inhibition).
Protein Sequence of recombinant Hig-tagged Tyk2 (575-869):
The preparation of radiolabeled probe, (R)-N-(1-(3-(8-methyl-5-(methylamino)-8H-imidazo[4,5-d]thiazolo[5,4-b]pyridin-2-yl)phenyl)ethyl)-2-([^3H]methylsulfonyl)benzamide, was performed as described below: […]
A general note: SPA uses beads or plates that emit light when radiolabelled molecules are held near them.

Drawing on US9315494B2, “Alkyl-amide-substituted pyridyl compounds useful as modulators of IL-12, IL-23 and/or IFNα responses” (Bristol-Myers Squibb Company, priority 2012, dated 2016), this text covers IC50 and EC50 for 20 compounds.

The term EC50 denotes the concentration needed to bring the measured effect to its halfway point. For the compound `CNC(=O)c1cnc(Nc2ccc(F)cn2)cc1Nc1ccccc1[S+](C)[O-]` (stereo not drawn) [Example 62], the IC50 in assay [1] is 0.898 µM; in assay [2] it was 1.29 µM. For the same compound, the EC50 in assay [3] turned out to be 0.0845 µM.

With `CNC(=O)c1cnc(Nc2ccc(F)cn2)cc1Nc1ccccc1CCO` [Example 66], the IC50 stood at 1.77 µM in assay [1] and 3.17 µM in assay [2]. In addition, the EC50 in assay [3] came out at 0.0148 µM.

As for `CNC(=O)c1cnc(Nc2cccc(OC)n2)cc1Nc1ccccc1C(N)=O` [Example 73], the IC50 in assay [1] amounted to 0.506 µM; in assay [2], 0.29 µM. In addition, the EC50 in assay [3] turned out to be 0.012 µM.

With `CNC(=O)c1cnc(Nc2ccc(CO)cn2)cc1Nc1ccccc1C(N)=O` [Example 79], the IC50 is 4.1 µM in assay [1] and 1.85 µM in assay [2]. In addition, in assay [3], the EC50 came to 0.0055 µM.

As to `CNC(=O)c1cnc(Nc2ccc(Cl)cn2)cc1Nc1ccccc1C(N)=O` [Example 80], the IC50 in assay [1] stood at 0.32 µM; in assay [2] it was 0.46 µM. In addition, in assay [3], the EC50 came out at 0.0044 µM.

Regarding `CNC(=O)c1cnc(Nc2ccc(O)cn2)cc1Nc1ccccc1C(N)=O` [Example 81], the IC50 in assay [1] is 5.58 µM; in assay [2], 4.49 µM. Moreover, in assay [3], the EC50 amounted to 0.0227 µM.

`CNC(=O)c1cnc(Nc2ccc3ccccc3n2)cc1Nc1ccccc1C(N)=O` [Example 87]: the figures for the IC50 in assay [1] and in assay [2] were 0.257 µM and 0.16 µM, respectively. Moreover, the EC50 in assay [3] stood at 0.0038 µM.

On to `CNC(=O)c1cnc(Nc2cc(CO)ccn2)cc1Nc1ccccc1C(N)=O` [Example 94], for which the IC50 was 3.56 µM in assay [1] and 3.43 µM in assay [2]. In addition, the EC50 in assay [3] was determined as 0.0095 µM.

In the case of `CNC(=O)c1cnc(Nc2ccc(N3CCOCC3)cn2)cc1Nc1ccc(Cl)cc1OC` [Example 104], the IC50 in assay [1] was 0.246 µM; in assay [2], 0.05 µM. The EC50 in assay [3] was 0.0177 µM.

For the compound `CNC(=O)c1cnc(Nc2ccc(N3CCCC3=O)cn2)cc1Nc1ccc(Cl)cc1OC` [Example 107], the IC50 in assay [1] is 0.189 µM; in assay [2], 0.12 µM. In addition, in assay [3], the EC50 was found to be 0.0324 µM.

As to `CCc1cccc(Nc2cc(Nc3ccc(Cl)cc3OC)c(C(=O)NC)cn2)n1` [Example 125], the IC50 in assay [1] worked out at 9.68 µM; in assay [2] it was 9.97 µM. In assay [3], the EC50 was found to be 0.436 µM.

For the compound `CNC(=O)c1cnc(Nc2ccc(C)cn2)cc1Nc1cc(F)cc(F)c1OC` [Example 128], the values for the IC50 in assay [1] and in assay [2] were 0.335 µM and 0.14 µM, respectively. Besides, in assay [3], the EC50 worked out at 0.0213 µM.

For `CNC(=O)c1cnc(Nc2cc(C#N)ccn2)cc1Nc1cc(F)cc(F)c1OC` [Example 134], the figures for the IC50 in assay [1] and in assay [2] were 0.314 µM and 0.13 µM, respectively. In addition, the EC50 in assay [3] amounted to 0.0099 µM.

Turning to `CNC(=O)c1cnc(Nc2cc(Cl)ccn2)cc1Nc1cc(F)cc(F)c1OC` [Example 144], the figures for the IC50 in assay [1] and in assay [2] were 0.517 µM and 0.23 µM, respectively. For the same compound, the EC50 in assay [3] was found to be 0.0461 µM.

As for `CNC(=O)c1cnc(Nc2ccc(C#N)c(C)n2)cc1Nc1ccc(F)cc1OC` [Example 152], the IC50 in assay [1] was 0.499 µM; in assay [2], 0.37 µM. Moreover, the EC50 in assay [3] was 0.0406 µM.

With `CNC(=O)c1cnc(Nc2cccc(-n3ccccc3=O)n2)cc1Nc1ccc(F)cc1OC` [Example 165], the values for the IC50 in assay [1] and in assay [2] were 10.7 µM and 6.65 µM, respectively. Further, the EC50 in assay [3] was 0.779 µM.

For `CNC(=O)c1cnc(Nc2cc(C#N)ccn2)cc1Nc1cccc(F)c1C(N)=O` [Example 176], the IC50 in assay [1] came out at 1.04 µM; in assay [2], 1.02 µM. For the same compound, the EC50 in assay [3] was 0.0188 µM.

Turning to `CNC(=O)c1cnc(Nc2ccc(F)cn2)cc1Nc1cccc2ccccc12` [Example 188], the IC50 amounted to 4.3 µM in assay [1] and 6.47 µM in assay [2]. For the same compound, the EC50 in assay [3] was 0.557 µM.

Turning to `CNC(=O)c1cnc(Nc2ccc(F)cn2)cc1Nc1ccc(-c2ccccc2)cc1` [Example 194], the figures for the IC50 in assay [1] and in assay [2] were 3.22 µM and 8.66 µM, respectively. Also, the EC50 in assay [3] stood at 0.349 µM.

For the compound `CNC(=O)c1cnc(Nc2ccc(F)cn2)cc1Nc1cc(Cl)ccc1OC` [Example 203], the IC50 in assay [1] was determined as 1.46 µM; in assay [2] it was 1.17 µM. Also, in assay [3], the EC50 was 0.0535 µM.
